Measurements published in patent US10405547B2, “Substituted cyclic amides as herbicides” (FMC Corporation, priority 2015, dated 2019).

Columns and labels:
Format in all cases: in vivo
[1] = tested on: barnyardgrass (Echinochloa crus-galli); assay: Test A preemergence, barnyardgrass; details: 0 to 100 scale (0 no effect, 100 complete control)
Summary of the method: (§1)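 Greenhouse assay; ~10 d; visual injury vs untreated control, scored 0 = no effect through 100 = complete control. Post-emergent seedlings at one–two leaves; pre-emergent seeds in loam/sand given a directed soil spray.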

[2] = tested on: kochia (Kochia scoparia); assay: Test A preemergence, kochia; details: 0 to 100 scale (0 no effect, 100 complete control)
Summary of the method: as §1

[3] = tested on: ragweed (common ragweed, Ambrosia elatior); assay: Test A preemergence, ragweed; details: 0 to 100 scale (0 no effect, 100 complete control)
Summary of the method: as §1

[4] = tested on: ryegrass, Italian (Lolium multiflorum); assay: Test A preemergence, Italian ryegrass; details: 0 to 100 scale (0 no effect, 100 complete control)
Summary of the method: as §1

[5] = tested on: foxtail, giant (Setaria faberii); assay: Test A preemergence, giant foxtail; details: 0 to 100 scale (0 no effect, 100 complete control)
Summary of the method: as §1

[6] = tested on: pigweed (Amaranthus retroflexus); assay: Test A preemergence, pigweed; details: 0 to 100 scale (0 no effect, 100 complete control)
Summary of the method: as §1

[7] = tested on: barnyardgrass (Echinochloa crus-galli); assay: Test A postemergence, barnyardgrass; details: visual injury, 0 to 100 scale (0 no effect, 100 complete control), approximately 10 days
Summary of the method: as §1

[8] = tested on: kochia (Kochia scoparia); assay: Test A postemergence, kochia; details: visual injury, 0 to 100 scale (0 no effect, 100 complete control), approximately 10 days
Summary of the method: as §1

[9] = tested on: ragweed (common ragweed, Ambrosia elatior); assay: Test A postemergence, ragweed; details: visual injury, 0 to 100 scale (0 no effect, 100 complete control), approximately 10 days
Summary of the method: as §1

[10] = tested on: ryegrass, Italian (Lolium multiflorum); assay: Test A postemergence, Italian ryegrass; details: visual injury, 0 to 100 scale (0 no effect, 100 complete control), approximately 10 days
Summary of the method: as §1

[11] = tested on: foxtail, giant (Setaria faberii); assay: Test A postemergence, giant foxtail; details: visual injury, 0 to 100 scale (0 no effect, 100 complete control), approximately 10 days
Summary of the method: as §1

[12] = tested on: pigweed (Amaranthus retroflexus); assay: Test A postemergence, pigweed; details: visual injury, 0 to 100 scale (0 no effect, 100 complete control), approximately 10 days
Summary of the method: as §1

[13] = tested on: blackgrass (Alopecurus myosuroides); assay: Test A postemergence, blackgrass; details: visual injury, 0 to 100 scale (0 no effect, 100 complete control), approximately 10 days
Summary of the method: as §1

[14] = tested on: galium (catchweed bedstraw, Galium aparine); assay: Test A postemergence, galium; details: visual injury, 0 to 100 scale (0 no effect, 100 complete control), approximately 10 days
Summary of the method: as §1

[15] = tested on: wheat (Triticum aestivum); assay: Test A postemergence, wheat; details: visual injury, 0 to 100 scale (0 no effect, 100 complete control), approximately 10 days
Summary of the method: as §1

[16] = tested on: corn (Zea mays); assay: Test A postemergence, corn; details: visual injury, 0 to 100 scale (0 no effect, 100 complete control), approximately 10 days
Summary of the method: as §1

[17] = tested on: rice (Oryza sativa); assay: Test B flooded paddy test, rice; details: applied to paddy water, visual rating after 13 to 15 days, scale 0 (no effect) to 100 (complete control)
Summary of the method: (§2)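 In-water treatment: compound dosed into 3 cm flood over soil, water level unchanged throughout. Controls run alongside; visual assessment at day 13–15.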

[18] = tested on: sedge, umbrella (small-flower umbrella sedge, Cyperus difformis); assay: Test B flooded paddy test, umbrella sedge; details: applied to paddy water, visual rating after 13 to 15 days, scale 0 (no effect) to 100 (complete control)
Summary of the method: as §2

[19] = tested on: ducksalad (Heteranthera limosa); assay: Test B flooded paddy test, ducksalad; details: applied to paddy water, visual rating after 13 to 15 days, scale 0 (no effect) to 100 (complete control)
Summary of the method: as §2

[20] = tested on: barnyardgrass (Echinochloa crus-galli); assay: Test B flooded paddy test, barnyardgrass; details: applied to paddy water, visual rating after 13 to 15 days, scale 0 (no effect) to 100 (complete control)
Summary of the method: as §2

Row | Structure (SMILES) | Plant response rating, Barnyardgrass ([1]; 125 g ai/ha) | Plant response rating, Barnyardgrass ([1]; 500 g ai/ha) | Plant response rating, Kochia ([2]; 125 g ai/ha) | Plant response rating, Kochia ([2]; 500 g ai/ha) | Plant response rating, Ragweed ([3]; 125 g ai/ha) | Plant response rating, Ragweed ([3]; 500 g ai/ha) | Plant response rating, Ryegrass, Italian ([4]; 125 g ai/ha) | Plant response rating, Ryegrass, Italian ([4]; 500 g ai/ha) | Plant response rating, Foxtail, Giant ([5]; 125 g ai/ha) | Plant response rating, Foxtail, Giant ([5]; 500 g ai/ha) | Plant response rating, Pigweed ([6]; 125 g ai/ha) | Plant response rating, Pigweed ([6]; 500 g ai/ha) | Plant response rating, Barnyardgrass ([7]; 125 g ai/ha) | Plant response rating, Barnyardgrass ([7]; 500 g ai/ha) | Plant response rating, Kochia ([8]; 125 g ai/ha) | Plant response rating, Kochia ([8]; 500 g ai/ha) | Plant response rating, Ragweed ([9]; 125 g ai/ha) | Plant response rating, Ragweed ([9]; 500 g ai/ha) | Plant response rating, Ryegrass, Italian ([10]; 125 g ai/ha) | Plant response rating, Ryegrass, Italian ([10]; 500 g ai/ha) | further results
1 | O=C1NCC(c2cccc(Oc3ccccn3)c2)C1C(=O)Nc1ccccc1F (stereo not drawn) [Compound 34, N-(2-Fluorophenyl)-2-oxo-4-[3-(2-pyridinyloxy)phenyl]-3-pyrrolidinecarboxamide] | 20 | 90 | 0 | 0 | 0 | 0 | 0 | 0 | 70 | 90 | 0 | 0 | 30 | 60 | 0 | 0 | 0 | 0 | 0 | 30 | Plant response rating, Foxtail, Giant ([11]; 125 g ai/ha): 30; Plant response rating, Foxtail, Giant ([11]; 500 g ai/ha): 80; Plant response rating, Pigweed ([12]; 125 g ai/ha): 0; Plant response rating, Pigweed ([12]; 500 g ai/ha): 0; Plant response rating, Blackgrass ([13]; 125 g ai/ha): 0; Plant response rating, Blackgrass ([13]; 500 g ai/ha): 20; Plant response rating, Galium ([14]; 125 g ai/ha): 20; Plant response rating, Galium ([14]; 500 g ai/ha): 50; Plant response rating, Wheat ([15]; 125 g ai/ha): 0; Plant response rating, Wheat ([15]; 500 g ai/ha): 0; Plant response rating, Corn ([16]; 125 g ai/ha): 0; Plant response rating, Corn ([16]; 500 g ai/ha): 0; Plant response rating, Rice (Flood) ([17]; 500 g ai/ha): 0; Plant response rating, Sedge, Umbrella (Flood) ([18]; 500 g ai/ha): 0; Plant response rating, Ducksalad (Flood) ([19]; 500 g ai/ha): 85; Plant response rating, Barnyardgrass (Flood) ([20]; 500 g ai/ha): 20
2 | O=C1NCC(c2cccc(OC(F)(F)C(F)OC(F)(F)F)c2)C1C(=O)Nc1ccccc1F (stereo not drawn) [Compound 40] | 50 | 90 | 0 | 90 | 0 | 20 | 0 | 0 | 90 | 90 | 0 | 0 | 50 | 40 | 0 | 0 | 0 | 0 | 0 | 0 | Plant response rating, Foxtail, Giant ([11]; 125 g ai/ha): 40; Plant response rating, Foxtail, Giant ([11]; 500 g ai/ha): 60; Plant response rating, Pigweed ([12]; 125 g ai/ha): 0; Plant response rating, Pigweed ([12]; 500 g ai/ha): 0; Plant response rating, Blackgrass ([13]; 125 g ai/ha): 0; Plant response rating, Blackgrass ([13]; 500 g ai/ha): 30; Plant response rating, Galium ([14]; 125 g ai/ha): 40; Plant response rating, Galium ([14]; 500 g ai/ha): 40; Plant response rating, Wheat ([15]; 125 g ai/ha): 0; Plant response rating, Wheat ([15]; 500 g ai/ha): 20; Plant response rating, Corn ([16]; 125 g ai/ha): 0; Plant response rating, Corn ([16]; 500 g ai/ha): 0; Plant response rating, Rice (Flood) ([17]; 250 g ai/ha): 0; Plant response rating, Sedge, Umbrella (Flood) ([18]; 250 g ai/ha): 0; Plant response rating, Ducksalad (Flood) ([19]; 250 g ai/ha): 70; Plant response rating, Barnyardgrass (Flood) ([20]; 250 g ai/ha): 20
3 | CN1CC(c2cccc(OC(F)(F)C(F)OC(F)(F)F)c2)C(C(=O)Nc2ccccc2F)C1=O (stereo not drawn) [Compound 41] | 20 | 90 | 30 | 60 | 20 | 70 | 20 | 60 | 80 | 90 | 70 | 90 | 50 | 50 | 20 | 60 | 0 | 0 | 0 | 20 | Plant response rating, Foxtail, Giant ([11]; 125 g ai/ha): 50; Plant response rating, Foxtail, Giant ([11]; 500 g ai/ha): 70; Plant response rating, Pigweed ([12]; 125 g ai/ha): 40; Plant response rating, Pigweed ([12]; 500 g ai/ha): 80; Plant response rating, Blackgrass ([13]; 125 g ai/ha): 0; Plant response rating, Blackgrass ([13]; 500 g ai/ha): 30; Plant response rating, Galium ([14]; 125 g ai/ha): 40; Plant response rating, Galium ([14]; 500 g ai/ha): 60; Plant response rating, Wheat ([15]; 125 g ai/ha): 0; Plant response rating, Wheat ([15]; 500 g ai/ha): 40; Plant response rating, Corn ([16]; 125 g ai/ha): 0; Plant response rating, Corn ([16]; 500 g ai/ha): 40; Plant response rating, Rice (Flood) ([17]; 250 g ai/ha): 20; Plant response rating, Sedge, Umbrella (Flood) ([18]; 250 g ai/ha): 0; Plant response rating, Ducksalad (Flood) ([19]; 250 g ai/ha): 100; Plant response rating, Barnyardgrass (Flood) ([20]; 250 g ai/ha): 0
